Source: patent publication US20090047335A1, “Anti-angiogenic peptides and methods of use thereof” (SOPHERION THERAPEUTICS, INC., priority 2004, published 2009)
Several values for one entry are separate records, joined by “and”; a condition that tells them apart may be missing. Equal entries are not always repeated.

How the values were obtained:
[1] = system: human breast cancer MDA-MB231 tumor xenografts; test: Human breast cancer MDA-MB231 tumor xenografts in nude mice: caliper and actual tumor weight, necrotic score; assay type: in vivo; settings: Docetaxel group
Procedure: The peptides of the invention were tested in an in vivo model of anti-tumor activity. This model compares the growth of the human breast cancer MDA-MB231 tumor xenografts in nude mice treated with 10 mg/kg or 20 mg/kg daily ip of ST100,059, docetaxel or saline.
Female nude mice (nu/nu) between 5 and 6 weeks of age weighing approximately 20 g were obtained from Harlan, Inc. Animals were implanted subcutaneously (s.c.) by trocar with fragments of human tumors harvested from s.c. grown tumors in nude mice hosts. When the tumors were approximately 60-75 mg in size (about 10-15 days following implantation), the animals were pair-matched into treatment and control groups. Each group contained 8-10 mice, each of which is ear-tagged and followed individually throughout the experiment.
The administration of drugs or controls began the day the animals were pair-matched with tumor size of about 70 mg (Day 1). Mice were weighed and tumor measurements were obtained using calipers twice weekly, starting on Day 1. These tumor measurements were converted to mg tumor weight by the standard formula, (W^2×L)/2. Upon termination of the experiment, the mice were weighed, sacrificed and their tumors were excised. The tumors were weighed, and the mean and medium tumor weight per group was calculated.
For each group, the table reports the caliper measurements and the actual tumor weights obtained as described above.

[2] = system: Mouse B16-F1 melanoma cells; test: Growth of subcutaneous B16 melanoma tumor in C57BL/6 mice; assay type: in vivo; design: unit not given beside the values; settings: group average, Doxorubicin group
Procedure: The peptides of the invention were tested in an in vivo model of anti-tumor activity. This model compares the growth of subcutaneous B16 melanoma tumor either untreated or treated with either 20 mg/kg, 40 mg/kg, 100 mg/kg daily ip doses of ST100,059.
Male C57BL/6 mice were obtained with a mean body weight of 20±2 g. Mouse B16-F1 melanoma cells were implanted subcutaneously (5×10^5 cell per animal). Peptides (formulated in water) were administered ip daily starting the day after injection of cells. Tumors became palpable around 9 days after injection of the cells. Tumors were then measured every 2 days.

[3] = in vitro; assay type: in vitro ADME, bovine; settings: serum
Procedure: A stock solution of 1 mM peptide dissolved in water was made. The stock was then diluted to 100 μM in either OptiMem medium+100 units/ml of penicillin and 100 μg/ml streptomycin sulfate+1% fetal bovine serum or in OptiMem+Pen/Strep+10% fetal bovine serum. The diluted samples were placed in a 24-well tissue culture plate in an incubator at 37 degrees. Aliquots of 50-100 μl were removed at 4, 6, 18, 24, 48 and 72 hrs and frozen at −70° C. until analysis.
Samples of 20 μl were separated on a C18 reverse phase column (4.8×250 mm) with a gradient of acetonitrile/water 0.1% TFA and analyzed using a single quad mass spectrometer. Singly or multiply charged peaks were detected depending on the mass of the peptide. Peptide degradation was determined in two ways: loss of peak area in the chromatogram produced using the mass spectrometer as the detector and loss of the main peak in the mass spectrum with simultaneous appearance of a peak(s) from a breakdown product.

[4] = system: bovine retinal endothelial cells (BRE); test: VEGF mediated survival/proliferation of BRE cells, WST-1 assay, peptides added at plating (before cells adhered); assay type: cell-based; settings: VEGF 25 ng/ml, 72 h; for WST-1 induced colorimetric change measured at 440 nm, average: average of wells; for WST-1 induced colorimetric change measured at 440 nm: single wells, 1% FBS
Procedure: The anti-angiogenic activities of the peptides were tested by measuring the level of inhibition of VEGF mediated survival/proliferation of bovine retinal endothelial cells (BRE), a standard cell line used to test anti-angiogenic compounds. Cells were maintained in Cambrex EGM-2MV medium. On day one cells were starved for either 6 hours or overnight, and thereafter trypsinized and plated in a 96 well plate in 100 μl of Invitrogen OptiMem+1% fetal bovine serum. A 100 μl aliquot of Invitrogen OptiMem+1% fetal bovine serum was then added to the wells in addition to, where appropriate, VEGF to a final concentration of 25 ng/ml and the various peptides to final concentration of 12.5, 25, 50 and 100 μg/ml. After 72 hours incubation, the number of live cells in each well was determined using the WST-1 assay (Roche).
The experiment was repeated using higher concentrations of peptide, to a maximum concentration of 200 μg/ml. This required the addition of a substantial amount of water (the peptides are soluble in water and are maintained as stock solution of 2 mg/ml). Therefore, we tested whether the addition of water itself would have any inhibitory effects. As before, BRE were maintained in Cambrex EGM-2MV medium. On day one, cells were starved for either 6 hours or overnight, and thereafter trypsinized and plated in a 96 well plate in 100 μl of OptiMem+1% fetal bovine serum. A 100 μl aliquot of OptiMem+1% fetal bovine serum was then added to the wells, further containing, where appropriate, VEGF to a final concentration of 25 ng/ml and the various peptides to final concentration of 25, 50, 100 and 200 μg/ml. After 72 hours incubation, the amount of live cells in each well was measured using the WST-1 assay (Roche). […]

[5] = system: VEGF-induced angiogenesis; test: VEGF-induced angiogenesis in Matrigel angio-reactors in FVB/N mice, FITC-dextran fluorescence; assay type: in vivo
Procedure: The peptides of the invention were also tested in an in vivo model of anti-angiogenic activity. This model analyzes VEGF-induced angiogenesis as it occurs in angio-reactors filled with Matrigel in wild-type FVB/N mice (Guedez et al., 2003, Am. J. Pathol. 162:1431-1439).
• Sterile, polyethene tubing (0.14 cm internal diameter) is cut to standard 1 cm lengths using a plexiglass template and single edge razor blade. These tubes are sealed at one end with nail-polish. Into the tubes, 20 μl of Matrigel (growth factor free obtained from BD Biosciences) containing 500 ng/ml VEGF with or without the indicated peptides is injected. After one hour of polymerization of the Matrigel at room temperature the angio-reactors are subcutaneously implanted into both flanks of wild-type FVB/N female mice (8-10 weeks old).
• After 10 days, angiogenesis in the angio-reactors is determined. Mice receive a 100 μl injection of 25 mg/ml of FITC-dextran in phosphate-buffered saline (PBS) via tail vein 20 minutes before collection of the angio-reactors. Quantification of vessel functionality is performed by removal of the Matrigel from the angio-reactors and the fluorescence is measured using a FLUOstar Galaxy microplate reader (excitation 485 nm, emission 520 nm, BMG Labtechnologies GmbH, Germany). The mean relative fluorescence±SD for 10 angio-reactors is determined and statistical analysis performed.

[6] = experiment 2, Bonferroni's Multiple Comparison Test

Row | Molecule | WST-1 induced colorimetric change measured at 440 nm, average ([4]; peptide 12.5 μg/ml, Table 2) | WST-1 induced colorimetric change measured at 440 nm, average ([4]; peptide 25 μg/ml, Table 2) | WST-1 induced colorimetric change measured at 440 nm, average ([4]; peptide 25 μg/ml, Table 3) | WST-1 induced colorimetric change measured at 440 nm, average ([4]; peptide 50 μg/ml, Table 2) | WST-1 induced colorimetric change measured at 440 nm, average ([4]; peptide 50 μg/ml, Table 3) | WST-1 induced colorimetric change measured at 440 nm, average ([4]; peptide 100 μg/ml, Table 2) | WST-1 induced colorimetric change measured at 440 nm, average ([4]; peptide 100 μg/ml, Table 3) | WST-1 induced colorimetric change measured at 440 nm, average ([4]; peptide 200 μg/ml, Table 3) | WST-1 induced colorimetric change measured at 440 nm ([4]; peptide 12.5 μg/ml, Table 2) | WST-1 induced colorimetric change measured at 440 nm ([4]; peptide 25 μg/ml, Table 2) | WST-1 induced colorimetric change measured at 440 nm ([4]; peptide 25 μg/ml, Table 3) | WST-1 induced colorimetric change measured at 440 nm ([4]; peptide 50 μg/ml, Table 2) | WST-1 induced colorimetric change measured at 440 nm ([4]; peptide 50 μg/ml, Table 3) | WST-1 induced colorimetric change measured at 440 nm ([4]; peptide 100 μg/ml, Table 2) | WST-1 induced colorimetric change measured at 440 nm ([4]; peptide 100 μg/ml, Table 3) | WST-1 induced colorimetric change measured at 440 nm ([4]; peptide 200 μg/ml, Table 3) | also measured
1 | CC(=O)O[C@@]12CO[C@@H]1C[C@H](O)[C@@]1(C)C(=O)[C@H](O)C3=C(C)[C@@H](OC(=O)[C@H](O)[C@@H](NC(=O)OC(C)(C)C)c4ccccc4)C[C@@](O)([C@@H](OC(=O)c4ccccc4)[C@H]21)C3(C)C [Docetaxel] | – | – | – | – | – | – | – | – | – | – | – | – | – | – | – | – | actual tumor weight, Average ([1]; group average): 1523 mg; caliper tumor weight, Average ([1]; group average): 1742.22 mg; actual tumor weight, Median ([1]; group median): 35 mg; caliper tumor weight, Median ([1]; group median): 75 mg; caliper tumor weight ([1]; individual mouse, caliper measurement converted by (W^2×L)/2, at termination): 87.5 mg and 32 mg (2×) and 48 mg and 75 mg (2×) and 288 mg and 126 mg (2×); actual tumor weight ([1]; individual mouse, excised tumor weighed): 54 mg and 10 mg and 18 mg and 26 mg and 35 mg and 225 mg and 25 mg and 82 mg and 46 mg
2 | COc1cccc2c1C(=O)c1c(O)c3c(c(O)c1C2=O)C[C@@](O)(C(=O)CO)C[C@@H]3O[C@H]1C[C@H](N)[C@H](O)[C@H](C)O1 [Doxorubicin] | – | – | – | – | – | – | – | – | – | – | – | – | – | – | – | – | subcutaneous B16 melanoma tumor measurement, Average ([2]; Day 11): 213.41; subcutaneous B16 melanoma tumor measurement, Average ([2]; Day 13): 419.71; subcutaneous B16 melanoma tumor measurement, Average ([2]; Day 15): 744.61; subcutaneous B16 melanoma tumor measurement, Average ([2]; Day 16): 1261.33
3 | CC(C)C[C@H](NC(=O)[C@H](CO)NC(=O)[C@@H](NC(=O)[C@H](C)N)[C@@H](C)O)C(=O)N1CCC[C@H]1C(=O)N1CCC[C@H]1C(=O)N[C@@H](Cc1c[nH]cn1)C(=O)N[C@@H](CO)C(=O)N[C@@H](CO)C(=O)N[C@@H](CCC(N)=O)C(=O)N[C@@H](CO)C(=O)N1CCC[C@H]1C(=O)O [ST100,038, ATSLPPHSSQSP] | – | – | – | – | – | – | – | – | – | – | – | – | – | – | – | – | peptide remaining (in words) ([3]; bovine, 18 h): none remained; metabolised at 4 h, 100 μM [3]: 50%; metabolised at 6 h, 100 μM [3]: 65%; metabolised at 18 h, 100 μM [3]: 25%; metabolised at 24 h, 100 μM [3]: 33%; metabolised at 48 h, 100 μM [3]: 60%; metabolised at 72 h, 100 μM [3]: 85%
4 | LPPHSS (listed as Homo sapiens) [ST100,037] | 0.753 | 0.708 | 0.449 | 0.643 | 0.442 | 0.694 | 0.466 | 0.386 | 0.780 and 0.730 and 0.748 | 0.716 and 0.713 and 0.695 | 0.439 and 0.432 and 0.476 | 0.636 and 0.659 and 0.633 | 0.427 and 0.438 and 0.462 | 0.692 and 0.697 and 0.694 | 0.449 and 0.486 and 0.462 | 0.384 and 0.401 and 0.372 | –
5 | LPPHSSQSP ((1)..(1) May be biotinylated; listed as Homo sapiens) [ST100,039] | 0.686 | 0.656 | 0.462 | 0.576 | 0.496 | 0.609 | 0.478 | 0.443 | 0.701 and 0.735 and 0.621 | 0.717 and 0.687 and 0.564 | 0.411 and 0.495 and 0.480 | 0.605 and 0.593 and 0.530 | 0.489 and 0.507 and 0.491 | 0.659 and 0.588 and 0.581 | 0.451 and 0.517 and 0.465 | 0.416 and 0.453 and 0.459 | –
6 | SPWSSCSVTCGDGVITRIR (listed as Homo sapiens) [TSP616] | – | – | – | – | – | – | – | – | – | – | – | – | – | – | – | – | relative fluorescence (FITC-dextran) of angio-reactors, mean ([5]; experiment 1, group mean, VEGF + inhibitor 40 μM): 6111; Mean Diff., pbs vs inhibitor group [5, 6]: −0.5; Mean Diff., vegf vs inhibitor group [5, 6]: 2645; relative fluorescence of angio-reactors, average ([5]; experiment 2, group average): 635; relative fluorescence of angio-reactors, median ([5]; experiment 2, group median): 484
